Laboratory results: US5646155A, “Drugs to prevent recurrent herpes virus infections” (priority 1994, dated 1997)
≈ marks a conversion by molar mass, not a printed value. Like-named read-outs stand apart in the source and are kept apart here.

Columns and labels:
[1] = target: Varicella Zoster Virus (VZV) Thymidine Kinase (TK) (Varicella-zoster virus, UniProt P09250); experiment: VZV thymidine kinase inhibition (Table 7); assay type: biochemical
[2] = physchem; settings: octanol/water
[3] = target: HSV2 TK (Human herpesvirus 2, UniProt P04407); experiment: HSV2 thymidine kinase inhibition (Table 1); assay type: biochemical
Description: kinases (TK) from Herpes simplex virus types 1 and 2 (HSV1, HSV2).

[4] = Solubility in water (Table 1); assay type: physicochemical; settings: read-out: Sol. in H2O
[5] = target: HSV1 TK (Human herpesvirus 1, UniProt P0DTH5); experiment: biochemical
[6] = Pharmacokinetics in mice following intraperitoneal administration (Table 3); assay type: in vivo; settings: mouse, ip
Procedure: Pharmacokinetic parameters of inhibitors in mice
following intraperitoneal (100 mg/Kg) administration (i.p.)
^1 Plasma concentrations were measured by analytical HPLC on a C8
reverse phase column as described in the experimental Section.

[7] = system: HSV1, strain McKrae; experiment: Reactivation in vitro of latent HSV1 strain McKrae from explanted mouse ganglia (Table 6); assay type: cell-based, mice; settings: 15 μM drugs, 7 days, supernatant added to Vero cells
Procedure: Screening of compounds is carried out using an in vitro explant cocultivation model in mice. Ocular HSV1 infections are initiated and, after subsidence of the infectious phase (several days), latent HSV1 infection becomes established in the trigeminal ganglia of the mice. The ganglia are then surgically removed and minced or homogenized, and this explanted tissue is cocultivated on mammalian cells, typically Vero cells. The frequency of reactivation is determined as the percentage of ganglia that produce HSV1 virus (as measured by viral cytopathic effect (CPE)) in the cultures. Effective drugs present during the cocultivation period will decrease the frequency of reactivation relative to untreated cocultures. See Leib et al. (J. Virol. 63:759-768 (1989)), incorporated herein by reference, and statements herein for further experimental details.
Latent ocular HSV1 infections were established in mice. Trigeminal gangli
were removed and treated as follows.
^2 Ganglia were minced and incubated for 7 days in the presence of 15
μM drugs; after homogenization, supernatant was added to Vero cells in
culture (courtesy of Dr. Y. J. Gordon, Eye and Ear Institute, Pittsburgh)

[8] = Absorption and distribution in mice (Table 2); assay type: in vivo; settings: for Vd/F: i.p.; for half-life: plasma
Description: Absorption and distribution of 9-substituted-N^2 -phenylquanines in mice.
*i.v., intravenous; i.p., intraperitoneal.

[9] = system: HSV1; experiment: Hyperthermia-induced HSV1 reactivation in mice, infectious virus (Table 4); assay type: in vivo; settings: for Infectious Virus, Ganglion / Infectious Virus, Ocular Surface: 200 mg/kg
Procedure: (§1) Table 5 provides quantitation of viral DNA using quantitative, competitive polymerase chain reaction methods.
(§2) .dagger-dbl.HSV1 latent mice were treated with HBPG (200 mg/kg), stressed
(§3) by immersion in 43° C. water for 10 min, and sacrificed 24 hours
ΔGanglion homogenates and ocular surface swabs were cocultured on
indicator cells and the appearance of cytopathic effect recorded.

[10] = system: HSV1; experiment: Hyperthermia-induced viral DNA synthesis in HSV1 latent mice, QCPCR (Table 5); assay type: in vivo; settings: 200 mg/kg, stressed (43° C. water 10 min), ganglionic DNA
Procedure: as §1, §2, §3
ΔGanglionic DNA was amplified in quantitative, competitive
polymerase chain reaction (QCPCR) and the copy number of the viral gene
present determined at the equivalence point.

[11] = system: HSV1, strain KOS; settings: 150 μM drugs, cocultivated on Vero cells (from Leib et al.); cited from earlier work
[12] = mouse, in vivo, ip, mice, in 90% DMSO/H2O, read-out: Volume of Distribution
[13] = mouse, ip, mice, in 90% DMSO/H2O
[14] = stressed (43° C. water 10 min), sacrificed 24 hours later
[15] = mouse, ip, pH 11.3, mice, in saline, pH 11.3

Chain of HSV2 TK (P04407 whole entry): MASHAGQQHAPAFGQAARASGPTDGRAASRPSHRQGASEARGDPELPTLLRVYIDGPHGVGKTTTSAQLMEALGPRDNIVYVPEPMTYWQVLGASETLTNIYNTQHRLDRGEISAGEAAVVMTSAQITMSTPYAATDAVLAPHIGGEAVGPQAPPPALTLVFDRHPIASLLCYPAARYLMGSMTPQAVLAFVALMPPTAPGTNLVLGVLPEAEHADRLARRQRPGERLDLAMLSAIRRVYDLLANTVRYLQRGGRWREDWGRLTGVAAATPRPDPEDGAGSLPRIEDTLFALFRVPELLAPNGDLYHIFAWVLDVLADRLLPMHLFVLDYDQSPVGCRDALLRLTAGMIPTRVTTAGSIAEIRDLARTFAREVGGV
Chain of Varicella Zoster Virus (VZV) Thymidine Kinase (TK) (P09250 whole entry, looked up): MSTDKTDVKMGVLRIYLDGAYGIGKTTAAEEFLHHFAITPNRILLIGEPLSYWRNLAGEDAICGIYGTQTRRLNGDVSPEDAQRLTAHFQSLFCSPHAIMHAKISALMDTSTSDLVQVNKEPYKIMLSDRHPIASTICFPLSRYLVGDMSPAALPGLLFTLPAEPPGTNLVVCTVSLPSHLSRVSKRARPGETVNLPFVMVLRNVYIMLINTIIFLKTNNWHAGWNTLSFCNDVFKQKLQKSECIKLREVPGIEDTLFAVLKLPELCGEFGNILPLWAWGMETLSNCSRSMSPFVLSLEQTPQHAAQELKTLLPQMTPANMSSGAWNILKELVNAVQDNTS
Chain of HSV1 TK (P0DTH5 whole entry): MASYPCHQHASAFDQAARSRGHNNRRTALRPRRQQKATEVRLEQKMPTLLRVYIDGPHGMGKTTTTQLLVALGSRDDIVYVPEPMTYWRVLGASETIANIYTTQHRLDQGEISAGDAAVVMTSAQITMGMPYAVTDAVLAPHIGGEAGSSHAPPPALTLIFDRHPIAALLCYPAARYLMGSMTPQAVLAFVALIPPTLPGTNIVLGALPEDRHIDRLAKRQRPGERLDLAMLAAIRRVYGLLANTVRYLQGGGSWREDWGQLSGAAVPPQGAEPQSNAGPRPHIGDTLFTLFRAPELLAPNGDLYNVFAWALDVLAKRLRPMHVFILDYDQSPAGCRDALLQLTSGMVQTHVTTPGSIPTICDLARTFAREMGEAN

Question: Which Ki [1] does the source give for `CCCCCCCCCCCCNc1nc2nc[nH]c2c(=O)[nH]1` [C12 G, N^2 -(n-Dodecyl)guanine] here?
Answer: 3200 nM

Question: And the “Mode of inhibition of VZV TK” value [1]?
Answer: Competitive inhibitor

Question: For `CCCCCCCCCCCCCCNc1nc2[nH]cnc2c(=O)[nH]1` [C14 G], which IC50 [1] is on record?
Answer: 69000 nM

Question: For `O=c1[nH]c(Nc2ccccc2)nc2c1ncn2CC(O)CSCCO` (stereo not shown) [CH2 CHCH2SCH2 CH2 OH], which logP [2] is on record?
Answer: 0.826

Question: What about the IC50 ([3]; read-out: IC50 HSV2 TK) of the same compound?
Answer: 1560 nM

Question: And the solubility [4]?
Answer: 29.8 µM (≈ 10.8 µg/mL)

Question: Which logP [2] does the source give for `C=CCn1cnc2c(=O)[nH]c(Nc3ccccc3)nc21` [CH2 CHCH2] here?
Answer: 1.75

Question: What about the solubility [4] of the same compound?
Answer: 8.1 µM (≈ 2.17 µg/mL)

Question: What does the source list for `O=c1[nH]c(Nc2ccccc2)nc2c1ncn2COC(CO)CO` [CH2OCH(CH2 OH)2]?
Answer: logP [2]: 0; IC50 [5]: 500 nM; solubility [4]: 113 µM (≈ 37.4 µg/mL)

Question: For `O=c1[nH]c(Nc2ccccc2)nc2c1ncn2CC(O)CO` (stereo not shown) [DHP-PG, 9-(2,3-Dihydroxypropyl)-N^2-phenylguanine], which C0 ([6]; in vivo, 100 mg/kg) is on record?
Answer: 115 µM

Question: And the half-life ([6]; in vivo, 100 mg/kg)?
Answer: 17.3 min

Question: What about the “# ganglia reactivated/# explanted, HSV1 strain McKrae” value [7] of the same compound?
Answer: 4/4

Question: And the logP [2]?
Answer: 0.398

Question: And the solubility [4]?
Answer: 171 µM (≈ 51.4 µg/mL)

Question: What does the source list for `O=c1[nH]c(Nc2ccccc2)nc2c1ncn2CCCCO` [HB-PG, 9-(4-Hydroxybutyl)-N^2-phenylguanine]?
Answer: Vd/F [8, 12]: 12.7 L/kg; half-life [8, 13]: 85 min; half-life ([8]; mouse, ip, mice, in corn oil): 55 min; C0 ([6]; in vivo, 100 mg/kg): 30.5 µM; Infectious Virus, Ganglion ([9]; not stressed): 0/8; Infectious Virus, Ocular Surface ([9]; not stressed): 0/9; Infectious Virus, Ganglion [9, 14]: 7/18; Infectious Virus, Ocular Surface [9, 14]: 3/20; P, difference in frequency of virus in samples from HBPG-treated compared to placebo-treated animals ([9]; vs placebo): < 0.05; # ganglia reactivated/# explanted, HSV1 strain McKrae [7]: 2/4; logP [2]: 1.26; IC50 [3]: 2200 nM; solubility [4]: 56 µM (≈ 16.8 µg/mL); Viral DNA [10]: < 1 × 10^2 copies

Question: Which results are given for `O=c1[nH]c(Nc2ccccc2)nc2c1ncn2CCO` [HE-PG, 9-(2-Hydroxyethyl)-N^2-phenylguanine]?
Answer: Plasma half-life ([8]; mice, i.v., in 90% DMSO/H2O): 15 min; Volume of Distribution ([8]; mice, i.v., in 90% DMSO/H2O): 3.3 L/kg; Vd/F [8, 12]: 4.3 L/kg; half-life [8, 13]: 19 min; C0 ([6]; in vivo, 100 mg/kg): 100 µM; half-life ([6]; plasma, mice, i.p. 100 mg/Kg, 90% DMSO, read-out: Plasma t1/2): 21 min; # ganglia reactivated/# explanted, HSV1 strain McKrae [7]: 4/4; logP [2]: 0.833; solubility [4]: 156 µM (≈ 42.4 µg/mL)

Question: Which IC50 [3] does the source give for `Oc1[nH]c(Nc2ccccc2)nc2ncnc1-2` [H] here?
Answer: 1600 nM

Question: Which results are given for `O=C(O)Cn1cnc2c(=O)[nH]c(Nc3ccccc3)nc21` [PG-AA, (N^2 -Phenylguan-9-yl)acetic acid]?
Answer: Vd/F [8, 12]: 1.7 L/kg; half-life [8, 13]: 33 min; C0 ([6]; in vivo, 100 mg/kg): 246 µM; half-life ([6]; in vivo, 100 mg/kg): 26.6 min; # ganglia reactivated/# explanted, HSV1 strain McKrae [7]: 4/4

Question: For `O=c1[nH]c(Nc2ccccc2)nc2c1ncn2[C@H]1C[C@H](O)[C@@H](CO)O1` [PhdG, 9-(2-Deoxyribofuranosyl)-N^2-phenylguanine], which Vd ([8]; mouse, in vivo, iv, mice, i.v., in saline, pH 11.3, read-out: Volume of Distribution) is on record?
Answer: 0.4 L/kg

Question: What about the half-life [8, 15] of the same compound?
Answer: 60 min

Question: What about the half-life ([8]; mouse, iv, pH 11.3, mice, in saline, pH 11.3) of the same compound?
Answer: 7.5 min

Question: And the C0 ([6]; in vivo, 100 mg/kg, pH 11.4)?
Answer: 11.7 µM

Question: What about the half-life ([6]; in vivo, 100 mg/kg, pH 11.4) of the same compound?
Answer: 60 min

Question: What about the “# ganglia reactivated/# explanted, HSV1 strain KOS” value [11] of the same compound?
Answer: 3/20

Question: What about the “# ganglia reactivated/# explanted, HSV1 strain McKrae” value [7] of the same compound?
Answer: 1/4

Question: What does the source list for `CCCNc1nc2c(ncn2[C@H]2C[C@H](O)[C@@H](CO)O2)c(=O)[nH]1` [PrdG, 9-(2-deoxyribofuranosyl)-N^2-n-propylguanine]?
Answer: IC50 [1]: 20000 nM; Ki [1]: 13600 nM; Mode of inhibition of VZV TK [1]: Competitive inhibitor

Question: Which results are given for `O=c1[nH]c(Nc2ccccc2)nc2c1ncn2[C@H]1C[C@H](O)[C@@H](CO)O1` [drawing 15]?
Answer: logP [2]: 0.398; IC50 [3]: 700 nM; solubility [4]: 81 µM (≈ 27.8 µg/mL)

Question: Which Plasma half-life ([8]; mice, i.v., in saline, pH 11.3) does the source give for `O=c1[nH]c(Nc2cccc(C(F)(F)F)c2)nc2nc[nH]c12` [m-CF3 PG, N^2-(m-[trifluoromethyl]phenyl)guanine, reference compound] here?
Answer: 25 min

Question: What about the “Volume of Distribution” value ([8]; mice, i.v., in saline, pH 11.3) of the same compound?
Answer: 3.0 L/kg

Question: What about the half-life [8, 15] of the same compound?
Answer: 140 min

Question: What about the C0 ([6]; in vivo, 100 mg/kg, pH 11.4) of the same compound?
Answer: 10.2 µM

Question: And the “# ganglia reactivated/# explanted, HSV1 strain KOS” value [11]?
Answer: 1/20

Question: What about the “# ganglia reactivated/# explanted, HSV1 strain McKrae” value [7] of the same compound?
Answer: 0/4
